Experimental data from patent US12358915B2, “METTL3 inhibitory compounds” (STORM THERAPEUTICS LTD., priority 2019, dated 2025).
Like-named read-outs stand apart in the source and are kept apart here.

Target: T1, METTL3/14 (Homo sapiens, UniProt Q86U44)
T1 construct: The enzyme used was full-length his-tagged METTL3; His; made in house
Assay: METTL3/14 methyltransferase assay (METTL3_14 RFMS, RapidFire mass spectrometry);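 note: recombinant His-tagged METTL3 with FLAG-tagged METTL14 from baculovirus, SAH product quantified by mass spectrometry against isotope-labelled internal standards, 60 min at room temperature, scaled between no-RNA and DMSO-only wells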
Format: biochemical
Details: read-out: METTL3_14 RFMS IC50

[1] = 5 nM METTL3/14, 0.2 μM RNA substrate, 0.5 μM SAM, lower limit of the assay IC50=5 nM, Compounds 63-265
[2] = 5 nM METTL3/14, 0.2 μM RNA substrate, 0.5 μM SAM, lower limit of the assay IC50=5 nM, Compounds 266-351

T1 sequence (Q86U44 whole entry): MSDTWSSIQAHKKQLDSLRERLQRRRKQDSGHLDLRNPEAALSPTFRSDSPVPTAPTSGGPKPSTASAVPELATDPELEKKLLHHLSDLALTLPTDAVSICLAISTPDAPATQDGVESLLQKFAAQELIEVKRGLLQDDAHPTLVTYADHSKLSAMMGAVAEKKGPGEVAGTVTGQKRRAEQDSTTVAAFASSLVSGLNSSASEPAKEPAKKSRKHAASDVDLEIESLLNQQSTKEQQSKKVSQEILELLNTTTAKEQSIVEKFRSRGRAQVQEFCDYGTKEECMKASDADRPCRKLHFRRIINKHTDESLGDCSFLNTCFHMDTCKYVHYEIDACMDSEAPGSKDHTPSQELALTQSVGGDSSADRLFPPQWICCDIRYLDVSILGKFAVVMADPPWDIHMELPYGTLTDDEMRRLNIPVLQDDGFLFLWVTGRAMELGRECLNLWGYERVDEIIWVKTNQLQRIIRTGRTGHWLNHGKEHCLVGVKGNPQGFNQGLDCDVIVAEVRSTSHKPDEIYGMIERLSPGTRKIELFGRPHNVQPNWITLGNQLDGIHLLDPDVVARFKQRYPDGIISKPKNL
T1 sequence (Q9HCE5 whole entry partner): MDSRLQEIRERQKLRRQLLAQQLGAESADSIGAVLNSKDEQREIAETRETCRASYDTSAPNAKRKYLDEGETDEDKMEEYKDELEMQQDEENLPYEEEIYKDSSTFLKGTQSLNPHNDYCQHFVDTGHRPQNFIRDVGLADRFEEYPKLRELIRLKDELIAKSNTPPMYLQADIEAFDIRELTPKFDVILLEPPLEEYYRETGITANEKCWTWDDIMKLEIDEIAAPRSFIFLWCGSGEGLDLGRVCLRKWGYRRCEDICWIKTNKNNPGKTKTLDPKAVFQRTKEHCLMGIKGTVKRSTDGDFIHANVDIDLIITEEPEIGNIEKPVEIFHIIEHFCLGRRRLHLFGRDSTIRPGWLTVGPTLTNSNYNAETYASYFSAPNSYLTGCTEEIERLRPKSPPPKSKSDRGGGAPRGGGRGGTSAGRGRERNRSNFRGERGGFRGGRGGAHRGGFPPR

SMILES: O=C(NCc1cn2cc(NCCc3ccccc3)ccc2n1)c1cc(=O)n2ccccc2n1 [Compound 191, 4-oxo-N-({6-[(2-phenylethyl)amino]imidazo[1,2-a]pyridin-2-yl}methyl)-4H-pyrido[1,2-a]pyrimidine-2-carboxamide]
- IC50: 4790 nM

SMILES: CC1(C)CCCCN1Cc1ccc2nc(CNC(=O)c3cc(=O)n4ccccc4n3)cn2c1 [Compound 194, N-({6-[(2,2-dimethylpiperidin-1-yl)methyl]imidazo[1,2-a]pyridin-2-yl}methyl)-4-oxo-4H-pyrido[1,2-a]pyrimidine-2-carboxamide]
- IC50 [1]: 305 nM

SMILES: O=C(NCc1cn2cc(CNc3ccc(F)cn3)ccc2n1)c1cc(=O)n2ccccc2n1 [Compound 196, N-[(6-{[(5-fluoropyridin-2-yl)amino]methyl}imidazo[1,2-a]pyridin-2-yl)methyl]-4-oxo-4H-pyrido[1,2-a] pyrimidine-2-carboxamide]
- IC50 [1]: 597 nM

SMILES: O=C(NCc1cn2cc(CNC3(C4CC4)CC3)ccc2n1)c1cc(=O)n2ccccc2n1 [Compound 197, N-({6-[({[1,1′-bi(cyclopropane)]-1-yl}amino)methyl]imidazo [1,2-a]pyridin-2-yl}methyl)-4-oxo-4H-pyrido [1,2-a]pyrimidine-2-carboxamide]
- IC50 [1]: 84.8 nM

SMILES: O=C(NCc1cn2cc(CNCC3(F)CCCC3)ccc2n1)c1cc(=O)n2ccccc2n1 [Compound 198, N-{[6-({[(1-fluorocyclopentyl)methyl]amino}methyl)imidazo [1,2-a]pyridin-2-yl]methyl}-4-oxo-4H-pyrido [1,2-a]pyrimidine-2-carboxamide]
- IC50 [1]: 44.1 nM

SMILES: CC1CN(Cc2ccc3nc(CNC(=O)c4cc(=O)n5ccccc5n4)cn3c2)CC(C)O1 (stereo not shown) [Compound 199, N-({6-[(2,6-dimethylmorpholin-4-yl)methyl]imidazo[1,2-a]pyridin-2-yl}methyl)-4-oxo-4H-pyrido[1,2-a]pyrimidine-2-carboxamide]
- IC50 [1]: 1860 nM

SMILES: COC(=O)C1CCCN(Cc2ccc3nc(CNC(=O)c4cc(=O)n5ccccc5n4)cn3c2)C1 (stereo not shown) [Compound 200, methyl 1-({2-[({4-oxo-4H-pyrido[1,2-a]pyrimidin-2-yl}formamido)methyl]imidazo [1,2-a]pyridin-6-yl}methyl) piperidine-3-carboxylate]
- IC50 [1]: 1260 nM

SMILES: CC(C)(F)CNCc1ccc2nc(CNC(=O)c3cc(=O)n4ccccc4n3)cn2c1 [Compound 202, N-[(6-{[(2-fluoro-2-methylpropyl)amino]methyl}imidazo[1,2-a]pyridin-2-yl)methyl]-4-oxo-4H-pyrido[1,2-a] pyrimidine-2-carboxamide]
- IC50 [1]: 61.1 nM

SMILES: CN(CCC1CC1)Cc1ccc2nc(CNC(=O)c3cc(=O)n4ccccc4n3)cn2c1 [Compound 204, N-[(6-{[(2-cyclopropylethyl) (methyl)amino]methyl}imidazo [1,2-a]pyridin-2-yl)methyl]-4-oxo-4H-pyrido [1,2-a]pyrimidine-2-carboxamide]
- IC50 [1]: 61.5 nM

SMILES: CN(Cc1ccc2nc(CNC(=O)c3cc(=O)n4ccccc4n3)cn2c1)CC(C)(C)C [Compound 205, N-[(6-{[(2,2-dimethylpropyl) (methyl)amino]methyl}imidazo [1,2-a]pyridin-2-yl)methyl]-4-oxo-4H-pyrido [1,2-a]pyrimidine-2-carboxamide]
- IC50 [1]: 197 nM

SMILES: O=C(NCc1cn2cc(CN3CCCC(F)(F)C3)ccc2n1)c1cc(=O)n2ccccc2n1 [Compound 208, N-({6-[(3,3-difluoropiperidin-1-yl)methyl]imidazo[1,2-a]pyridin-2-yl}methyl)-4-oxo-4H-pyrido [1,2-a]pyrimidine-2-carboxamide]
- IC50 [1]: 5730 nM

SMILES: C[C@H](NCc1ccc2nc(CNC(=O)c3cc(=O)n4ccccc4n3)cn2c1)C(C)(C)C [Compound 215, N-{[6-({[(2S)-3,3-dimethylbutan-2-yl]amino}methyl)imidazo[1,2-a]pyridin-2-yl]methyl}-4-oxo-4H-pyrido [1,2-a]pyrimidine-2-carboxamide]
- IC50 [1]: 54.3 nM

SMILES: O=C(NCc1cn2cc(CN3CCCCC3)ccc2n1)c1cc(=O)c2ccccc2o1 [Compound 219, 4-oxo-N-({6-[(piperidin-1-yl)methyl]imidazo[1,2-a]pyridin-2-yl}methyl)-4H-chromene-2-carboxamide]
- IC50 [1]: 247 nM

SMILES: O=C(NCc1cn2cc(CNCc3ccc(Cl)cc3)ccc2n1)c1cc(=O)c2ccccc2o1 [Compound 220, N-{[6-({[(4-chlorophenyl)methyl]amino}methyl)imidazo[1,2-a]pyridin-2-yl]methyl}-4-oxo-4H-chromene-2-carboxamide]
- IC50 [1]: 168 nM

SMILES: O=C(NCc1cn2cc(CNCc3ccccc3)ccc2n1)c1cc(=O)c2ccccc2o1 [Compound 221, N-({6-[(benzylamino)methyl]imidazo[1,2-a]pyridin-2-yl}methyl)-4-oxo-4H-chromene-2-carboxamide]
- IC50 [1]: 46.7 nM

SMILES: CC1(CNCc2ccc3nc(CNC(=O)c4cc(=O)c5ccccc5o4)cn3c2)CCCCC1 [Compound 222, N-{[6-({[(1-methylcyclohexyl)methyl]amino}methyl)imidazo [1,2-a]pyridin-2-yl]methyl}-4-oxo-4H-chromene-2-carboxamide]
- IC50 [1]: 33.9 nM

SMILES: O=C(NCc1cn2ccc(CNCC3CCCCC3)cc2n1)c1cc(=O)n2ccccc2n1 [Compound 223, N-[(7-{[(cyclohexylmethyl)amino]methyl}imidazo[1,2-a]pyridin-2-yl)methyl]-4-oxo-4H-pyrido[1,2-a]pyrimidine-2-carboxamide]
- IC50 [1]: 2170 nM

SMILES: O=C(NCc1cn2ccc(CNCC3CC3)cc2n1)c1cc(=O)n2ccccc2n1 [Compound 224, N-[(7-{[(cyclopropylmethyl)amino]methyl}imidazo[1,2-a]pyridin-2-yl)methyl]-4-oxo-4H-pyrido[1,2-a]pyrimidine-2-carboxamide]
- IC50 [1]: 1870 nM

SMILES: O=C(NCc1cn2cc(CNC(=O)C3CCCCC3)ccc2n1)c1cc(=O)n2ccccc2n1 [Compound 238, N-({6-[(cyclohexylformamido)methyl]imidazo[1,2-a]pyridin-2-yl}methyl)-4-oxo-4H-pyrido[1,2-a]pyrimidine-2-carboxamide]
- IC50 [1]: 850 nM

SMILES: O=C(NCc1cn2cc(CNCC3CCCNC3)ccc2n1)c1cc(=O)n2ccccc2n1 (stereo not shown) [Compound 239, 4-oxo-N-{[6-({[(piperidin-3-yl)methyl]amino}methyl)imidazo[1,2-a]pyridin-2-yl]methyl}-4H-pyrido[1,2-a]pyrimidine-2-carboxamide]
- IC50 [1]: 513 nM

SMILES: O=C(NCc1cn2cc(CNCC3CCCCN3)ccc2n1)c1cc(=O)n2ccccc2n1 (stereo not shown) [Compound 240, 4-oxo-N-{[6-({[(piperidin-2-yl)methyl]amino}methyl)imidazo[1,2-a]pyridin-2-yl]methyl}-4H-pyrido[1,2-a]pyrimidine-2-carboxamide]
- IC50 [1]: 260 nM

SMILES: O=C(NCc1cn2cc(CNC3CNC3)ccc2n1)c1cc(=O)n2ccccc2n1 [Compound 241, N-[(6-{[(azetidin-3-yl)amino]methyl}imidazo[1,2-a]pyridin-2-yl)methyl]-4-oxo-4H-pyrido[1,2-a]pyrimidine-2-carboxamide]
- IC50 [1]: 2110 nM

SMILES: O=C(NCc1cn2ccc(CNCCc3ccccc3)cc2n1)c1cc(=O)n2ccccc2n1 [Compound 243, 4-oxo-N-[(7-{[(2-phenylethyl)amino]methyl}imidazo[1,2-a]pyridin-2-yl)methyl]-4H-pyrido[1,2-a]pyrimidine-2-carboxamide]
- IC50: 1450 nM

SMILES: O=C(NCc1cn2cc(C3(NCC4CCCCC4)CC3)ccc2n1)c1cc(=O)n2ccccc2n1 [Compound 245, N-[(6-{1-[(cyclohexylmethyl)amino]cyclopropyl}imidazo[1,2-a]pyridin-2-yl)methyl]-4-oxo-4H-pyrido[1,2-a]pyrimidine-2-carboxamide]
- IC50 [1]: 735 nM

SMILES: NC(Cc1ccccc1)Cc1ccc2nc(CNC(=O)c3cc(=O)n4ccccc4n3)cn2c1 (stereo not shown) [Compound 247, N-{[6-(2-amino-3-phenylpropyl)imidazo[1,2-a]pyridin-2-yl]methyl}-4-oxo-4H-pyrido[1,2-a]pyrimidine-2-carboxamide]
- IC50 [1]: 1080 nM

SMILES: CC(C)(C)CNCc1ccc2nc(CNC(=O)c3cc(=O)c4ccccc4o3)cn2c1 [Compound 265, N-[(6-{[(2,2-dimethylpropyl)amino]methyl}imidazo[1,2-a]pyridin-2-yl)methyl]-4-oxo-4H-chromene-2-carboxamide]
- IC50 [1]: 50.6 nM

SMILES: CC(C)(C#N)CNCc1ccc2nc(CNC(=O)c3cc(=O)n4ccccc4n3)cn2c1 [Compound 275, N-[[6-[[(2-cyano-2-methyl-propyl)amino]methyl]imidazo[1,2-a]pyridin-2-yl]methyl]-4-oxo-pyrido[1,2-a]pyrimidine-2-carboxamide]
- IC50 [2]: 1240 nM

SMILES: O=C(NCc1cn2cc(CNCC3CC4(CCC4)C3)ccc2n1)c1cc(=O)n2ccccc2n1 [Compound 277, 4-oxo-N-[[6-[(spiro[3.3]heptan-2-ylmethylamino)methyl]imidazo[1,2-a]pyridin-2-yl]methyl]pyrido[1,2-a]pyrimidine-2-carboxamide]
- IC50 [2]: 76.3 nM

SMILES: CCC(O)CNCc1ccc2nc(CNC(=O)c3cc(=O)n4ccccc4n3)cn2c1 (stereo not shown) [Compound 289, N-[[6-[(2-hydroxputylamino)methyl]imidazo[1,2-a]pyridin-2-yl]methyl]-4-oxo-pyrido[1,2-a]pyrimidine-2-carboxamide]
- IC50 [2]: 103 nM

SMILES: CC1(C)CC(CNCc2ccc3nc(CNC(=O)c4cc(=O)n5ccccc5n4)cn3c2)C1 [Compound 291, N-[[6-[[(3,3-dimethylcyclobutyl)methylamino]methyl]imidazo[1,2-a]pyridin-2-yl]methyl]-4-oxo-pyrido[1,2-a]pyrimidine-2-carboxamide]
- IC50 [2]: 62.2 nM

SMILES: O=C(NCc1cn2cc(CNCC3CC4C=CC3C4)ccc2n1)c1cc(=O)n2ccccc2n1 (stereo not shown) [Compound 346, N-[(6-{[({bicyclo[2.2.1]hept-5-en-2-yl}methyl)amino]methyl}imidazo[1,2-a]pyridin-2-yl)methyl]-4-oxo-4H-pyrido[1,2-a]pyrimidine-2-carboxamide]
- IC50 [2]: 7.68 nM
